Read-outs that look alike come from different tables or passages of the source.
Columns and labels:
Experiment in all cases: kinase profiling panel
Format in all cases: biochemical
Conditions in all cases: read-out: % Activity Remaining
MARK4 = target: T1, MARK4 (Homo sapiens, UniProt Q96L34)
T1 sequence (Q96L34 1-752): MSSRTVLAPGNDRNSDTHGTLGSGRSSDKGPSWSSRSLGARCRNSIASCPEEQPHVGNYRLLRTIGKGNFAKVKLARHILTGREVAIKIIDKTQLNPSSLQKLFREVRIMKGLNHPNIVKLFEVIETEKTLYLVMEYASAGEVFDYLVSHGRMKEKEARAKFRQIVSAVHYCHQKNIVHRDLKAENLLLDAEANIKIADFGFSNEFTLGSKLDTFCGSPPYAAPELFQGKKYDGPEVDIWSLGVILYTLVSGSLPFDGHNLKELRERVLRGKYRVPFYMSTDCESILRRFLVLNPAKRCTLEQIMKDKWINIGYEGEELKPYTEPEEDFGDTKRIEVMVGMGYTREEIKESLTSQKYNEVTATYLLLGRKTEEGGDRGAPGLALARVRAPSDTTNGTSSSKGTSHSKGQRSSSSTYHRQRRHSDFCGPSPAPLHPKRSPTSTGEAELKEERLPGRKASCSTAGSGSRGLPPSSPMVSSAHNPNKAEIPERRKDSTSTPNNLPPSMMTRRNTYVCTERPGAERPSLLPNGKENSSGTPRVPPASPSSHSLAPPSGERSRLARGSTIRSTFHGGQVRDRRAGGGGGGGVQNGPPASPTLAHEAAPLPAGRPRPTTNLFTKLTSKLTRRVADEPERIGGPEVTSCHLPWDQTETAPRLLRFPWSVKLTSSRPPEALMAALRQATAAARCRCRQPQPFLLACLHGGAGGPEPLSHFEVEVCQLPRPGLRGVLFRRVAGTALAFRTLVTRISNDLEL
Text: (§1) Protein kinase profiling against a Dundee panel of 140 protein kinases was undertaken at the International Centre for Protein Kinase Profiling. The result for each kinase was presented as a mean kinase activity of the reaction taken in triplicate relative to a control sample treated with DMSO. Assay conditions and abbreviations are available at http://www.kinase-screen.mrc.ac.uk.

TTK = target: T2, TTK (Homo sapiens, UniProt P33981)
T2 sequence (P33981 1-857): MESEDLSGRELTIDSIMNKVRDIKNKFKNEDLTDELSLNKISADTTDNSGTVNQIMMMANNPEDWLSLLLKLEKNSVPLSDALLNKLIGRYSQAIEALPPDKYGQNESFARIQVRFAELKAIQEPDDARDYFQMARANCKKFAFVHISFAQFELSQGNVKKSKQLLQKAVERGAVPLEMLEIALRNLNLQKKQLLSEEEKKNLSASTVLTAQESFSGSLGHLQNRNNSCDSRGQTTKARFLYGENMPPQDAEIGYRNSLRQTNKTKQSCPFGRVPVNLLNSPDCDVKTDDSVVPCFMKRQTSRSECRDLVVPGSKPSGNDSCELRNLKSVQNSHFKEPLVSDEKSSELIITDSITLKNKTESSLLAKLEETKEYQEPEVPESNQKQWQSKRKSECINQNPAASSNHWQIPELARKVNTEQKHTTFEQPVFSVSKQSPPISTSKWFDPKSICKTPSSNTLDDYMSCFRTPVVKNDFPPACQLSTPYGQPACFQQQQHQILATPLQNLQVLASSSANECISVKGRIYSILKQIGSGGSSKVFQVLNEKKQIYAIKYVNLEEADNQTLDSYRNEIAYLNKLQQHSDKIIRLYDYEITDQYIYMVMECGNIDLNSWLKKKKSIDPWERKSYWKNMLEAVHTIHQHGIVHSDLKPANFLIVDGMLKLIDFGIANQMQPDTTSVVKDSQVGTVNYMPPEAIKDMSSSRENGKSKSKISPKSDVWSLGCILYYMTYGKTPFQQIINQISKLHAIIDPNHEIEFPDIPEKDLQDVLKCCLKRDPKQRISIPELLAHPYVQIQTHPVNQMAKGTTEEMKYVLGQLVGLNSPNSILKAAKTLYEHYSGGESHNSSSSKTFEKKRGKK
Text: as §1

PKC zeta = target: T3, PKC zeta (Homo sapiens, UniProt Q05513)
T3 sequence (Q05513 1-592): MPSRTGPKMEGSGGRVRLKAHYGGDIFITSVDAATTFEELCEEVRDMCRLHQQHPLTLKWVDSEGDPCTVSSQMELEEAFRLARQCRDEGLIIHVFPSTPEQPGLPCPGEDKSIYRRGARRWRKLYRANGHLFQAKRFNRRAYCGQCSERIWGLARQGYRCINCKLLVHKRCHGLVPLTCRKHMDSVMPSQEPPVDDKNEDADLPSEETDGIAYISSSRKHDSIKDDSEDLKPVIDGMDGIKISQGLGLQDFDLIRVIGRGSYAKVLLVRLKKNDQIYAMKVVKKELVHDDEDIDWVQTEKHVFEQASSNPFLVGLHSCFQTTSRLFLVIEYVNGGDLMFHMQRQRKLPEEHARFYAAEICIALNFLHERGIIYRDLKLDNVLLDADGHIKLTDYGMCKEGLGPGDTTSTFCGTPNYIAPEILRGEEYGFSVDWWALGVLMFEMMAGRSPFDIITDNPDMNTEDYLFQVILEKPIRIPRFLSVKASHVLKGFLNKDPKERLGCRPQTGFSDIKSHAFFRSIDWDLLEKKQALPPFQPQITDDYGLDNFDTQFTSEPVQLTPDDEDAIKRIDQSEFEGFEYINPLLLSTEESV
Text: as §1

MAPKAP-K3 = MAPKAP-K3 (Homo sapiens, UniProt Q16644)
Text: as §1

PKB alpha = PKB alpha (Homo sapiens, UniProt P31749)
Text: as §1

NEK2a = target: T4, NEK2a (Homo sapiens, UniProt P51955)
T4 sequence (P51955 1-445): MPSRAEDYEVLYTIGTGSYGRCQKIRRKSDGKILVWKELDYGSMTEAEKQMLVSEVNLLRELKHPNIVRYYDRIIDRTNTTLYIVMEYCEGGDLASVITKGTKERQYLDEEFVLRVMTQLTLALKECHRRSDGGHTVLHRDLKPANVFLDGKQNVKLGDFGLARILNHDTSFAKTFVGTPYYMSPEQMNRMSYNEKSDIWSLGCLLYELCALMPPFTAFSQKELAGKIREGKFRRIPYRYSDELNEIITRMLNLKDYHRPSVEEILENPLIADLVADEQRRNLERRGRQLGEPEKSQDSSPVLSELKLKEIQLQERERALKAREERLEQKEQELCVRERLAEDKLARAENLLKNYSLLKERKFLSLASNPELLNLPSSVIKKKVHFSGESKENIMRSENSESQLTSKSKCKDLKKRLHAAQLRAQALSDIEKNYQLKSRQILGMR
Text: as §1

PKA = PKA (Homo sapiens, UniProt P17612)
Text: as §1

Sequence of MAPKAP-K3 (Q16644 whole entry): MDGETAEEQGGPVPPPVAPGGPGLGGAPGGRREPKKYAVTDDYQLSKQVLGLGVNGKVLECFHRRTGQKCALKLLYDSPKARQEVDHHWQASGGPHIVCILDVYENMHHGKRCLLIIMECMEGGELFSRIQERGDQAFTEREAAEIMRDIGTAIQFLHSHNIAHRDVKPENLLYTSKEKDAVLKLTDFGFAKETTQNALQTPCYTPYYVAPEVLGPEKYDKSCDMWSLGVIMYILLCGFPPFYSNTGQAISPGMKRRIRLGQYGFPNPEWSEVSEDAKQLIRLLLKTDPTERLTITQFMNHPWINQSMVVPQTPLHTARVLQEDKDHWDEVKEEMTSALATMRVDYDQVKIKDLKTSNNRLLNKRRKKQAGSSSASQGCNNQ
Sequence of PKB alpha (P31749 whole entry): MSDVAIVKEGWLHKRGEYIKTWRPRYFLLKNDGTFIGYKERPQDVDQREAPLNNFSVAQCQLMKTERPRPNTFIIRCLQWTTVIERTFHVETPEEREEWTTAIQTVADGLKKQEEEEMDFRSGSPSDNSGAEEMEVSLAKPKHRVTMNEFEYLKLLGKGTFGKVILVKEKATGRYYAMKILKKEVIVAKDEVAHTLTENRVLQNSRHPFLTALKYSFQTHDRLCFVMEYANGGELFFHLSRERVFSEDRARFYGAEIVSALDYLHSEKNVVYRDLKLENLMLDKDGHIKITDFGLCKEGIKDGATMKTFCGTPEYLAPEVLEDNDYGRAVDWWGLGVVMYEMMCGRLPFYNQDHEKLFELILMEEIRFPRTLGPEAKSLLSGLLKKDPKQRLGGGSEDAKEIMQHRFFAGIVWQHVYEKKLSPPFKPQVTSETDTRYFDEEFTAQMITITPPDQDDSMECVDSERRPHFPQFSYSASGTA

SMILES | remaining activity at 1 µM (MARK4; 1 µM) [%] | remaining activity at 1 µM (TTK; 1 µM) [%] | remaining activity at 1 µM (PKC zeta; 1 µM) [%] | remaining activity at 1 µM (MAPKAP-K3; 1 µM) [%] | remaining activity at 1 µM (PKB alpha; 1 µM) [%] | remaining activity at 1 µM (NEK2a; 1 µM) [%] | remaining activity at 1 µM (PKA; 1 µM) [%] | remaining activity at 1 µM (MARK4) [%] | remaining activity at 1 µM (TTK) [%] | remaining activity at 1 µM (PKC zeta) [%] | remaining activity at 1 µM (MAPKAP-K3) [%] | remaining activity at 1 µM (PKB alpha) [%] | remaining activity at 1 µM (NEK2a) [%] | remaining activity at 1 µM (PKA) [%]
Cc1ccc(F)c(S(=O)(=O)Nc2ccc(-c3nc(OC[C@H]4CN(CCCCCCOCCOCCOCC(=O)N[C@H](C(=O)N5C[C@H](O)C[C@H]5C(=O)NCc5ccc(-c6scnc6C)cc5)C(C)(C)C)CCO4)c4cn[nH]c4n3)cc2)c1 [SGK3-PROTAC1] | 105 | 89 | 96 | 79 | 105 | 162 | 108 | – | – | – | – | – | – | –
COc1ccc(Cl)c(S(=O)(=O)Nc2ccc(-c3nc(OC[C@H]4CNCCO4)c4c(C)n[nH]c4n3)cc2)c1 [290-R, reference compound] | – | – | – | – | – | – | – | 98 | 76 | 110 | 105 | 49 | 74 | 85
Cc1ccc(F)c(S(=O)(=O)Nc2ccc(-c3nc(OC[C@H]4CN(CCCCCCOCCOCCOCC(=O)N[C@H](C(=O)N5C[C@@H](O)C[C@H]5C(=O)NCc5ccc(-c6scnc6C)cc5)C(C)(C)C)CCO4)c4cn[nH]c4n3)cc2)c1 [cisSGK3-PROTAC1] | 100 | 99 | 110 | 77 | 117 | 139 | 111 | – | – | – | – | – | – | –
Cc1ccc(F)c(S(=O)(=O)Nc2ccc(-c3nc(OC[C@H]4CNCCO4)c4cn[nH]c4n3)cc2)c1 [308-R, reference compound] | – | – | – | – | – | – | – | 73 | 91 | 72 | 83 | 96 | 67 | 106

— publication PMC6757289, “Design and Characterization of SGK3-PROTAC1, an Isoform Specific SGK3 Kinase PROTAC Degrader” (ACS Chemical Biology, 2019)
